Data: patent US20120165310A1, “ETHER DERIVATIVES OF BICYCLIC HETEROARYLS” (NOVARTIS AG, priority 2009, published 2012)

Target: T1, IGF-1R (Homo sapiens, UniProt P08069)
T1 construct: expressed in transfected cells; host or cells: Hek293 (Hek293-IGF1R)
Experiment: Cellular IGF-1R assay: capture ELISA (MSD) of receptor phosphorylation in Hek293 cells
Format: cell-based
Details: Hek293-IGF1R cells, 1 h pre-incubation, 10 min IGF stimulation, pIGF1R capture ELISA
Summary of the method: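 IC50 from 4-parameter fit of IGF1R phosphorylation, normalised to IGF-stimulated and unstimulated controls, measured by MSD capture ELISA on lysates. Hek293-IGF1R cells in starvation medium got compound 1 h (top 10 μM, 3-fold steps, 0.1% DMSO) before a 10 min pulse of 1.0 ng/μL IGF.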

T1 sequence (P08069 31-1367): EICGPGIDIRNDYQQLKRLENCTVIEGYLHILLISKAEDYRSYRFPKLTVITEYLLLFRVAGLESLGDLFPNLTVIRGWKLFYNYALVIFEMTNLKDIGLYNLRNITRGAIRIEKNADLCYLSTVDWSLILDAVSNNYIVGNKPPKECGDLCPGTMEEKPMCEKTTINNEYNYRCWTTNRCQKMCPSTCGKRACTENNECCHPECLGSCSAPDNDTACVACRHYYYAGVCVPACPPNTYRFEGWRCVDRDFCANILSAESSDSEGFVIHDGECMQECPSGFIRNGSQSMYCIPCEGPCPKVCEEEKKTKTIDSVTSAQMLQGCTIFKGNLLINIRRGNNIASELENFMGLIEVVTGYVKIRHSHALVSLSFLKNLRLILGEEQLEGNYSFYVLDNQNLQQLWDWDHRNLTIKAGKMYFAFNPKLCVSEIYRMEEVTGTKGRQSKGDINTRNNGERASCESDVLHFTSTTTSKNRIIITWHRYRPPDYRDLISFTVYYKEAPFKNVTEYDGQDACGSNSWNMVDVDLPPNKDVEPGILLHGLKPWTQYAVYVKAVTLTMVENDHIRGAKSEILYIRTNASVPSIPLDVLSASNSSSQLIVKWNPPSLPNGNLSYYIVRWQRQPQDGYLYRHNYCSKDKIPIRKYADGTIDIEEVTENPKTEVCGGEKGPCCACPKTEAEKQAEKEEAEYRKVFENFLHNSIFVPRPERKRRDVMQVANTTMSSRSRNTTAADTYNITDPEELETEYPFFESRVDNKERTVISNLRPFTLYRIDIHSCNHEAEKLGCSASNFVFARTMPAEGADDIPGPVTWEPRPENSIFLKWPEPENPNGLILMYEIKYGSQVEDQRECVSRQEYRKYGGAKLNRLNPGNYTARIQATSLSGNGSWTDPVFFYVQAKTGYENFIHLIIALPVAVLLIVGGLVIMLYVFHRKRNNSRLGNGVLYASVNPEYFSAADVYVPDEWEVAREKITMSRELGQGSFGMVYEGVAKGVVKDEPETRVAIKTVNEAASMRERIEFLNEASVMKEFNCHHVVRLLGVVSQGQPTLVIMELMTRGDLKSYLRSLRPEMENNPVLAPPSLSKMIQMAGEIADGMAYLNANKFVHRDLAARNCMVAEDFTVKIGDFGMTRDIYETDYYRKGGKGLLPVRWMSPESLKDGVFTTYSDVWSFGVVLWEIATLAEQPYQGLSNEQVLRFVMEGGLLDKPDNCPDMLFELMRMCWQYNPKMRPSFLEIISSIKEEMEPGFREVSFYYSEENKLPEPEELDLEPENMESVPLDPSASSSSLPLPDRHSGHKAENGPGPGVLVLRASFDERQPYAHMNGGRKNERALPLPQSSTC

SMILES | IC50
NC(=O)[C@@H]1COCCN1C[C@H]1C[C@@H](n2cc(-c3cccc(OCC4CCCCO4)c3)c3c(N)ncnc32)C1 (stereo partly drawn) [Example 96, (3S)-cis-4-((3-(4-amino-5-(3-((tetrahydro-2H-pyran-2-yl)methoxy)phenyl)-7H-pyrrolo[2,3-d]pyrimidin-7-yl}-cyclobutyl)methyl)morpholine-3-carboxamide] | 59 nM
NC(=O)C1CC(F)CN1CC1CC(n2cc(-c3cccc(OCC4CCCCO4)c3)c3c(N)ncnc32)C1 [Example 97, (2S,4S)-1-(((1S,3R)-3-(4-amino-5-(3-((tetrahydro-2H-pyran-2-yl)methoxy)phenyl)-7H-pyrrolo[2,3-d]pyrimidin-7-yl)cyclobutyl)methyl)-4-fluoropyrrolidine-2-carboxamide] | 105 nM
CC1(C)CN(CC2CC(n3cc(-c4cccc(OCC5CCCCO5)c4)c4c(N)ncnc43)C2)[C@H](C(N)=O)CO1 (stereo partly drawn) [Example 98, (3S)-4-((3-(4-amino-5-(3-((tetrahydro-2H-pyran-2-yl)methoxy)phenyl)-7H-pyrrolo[2,3-d]pyrimidin-7-yl)cyclobutyl)methyl)-6,6-dimethylmorpholine-3-carboxamide] | 28 nM
CNC(=O)[C@H]1CCCN1C[C@H]1C[C@@H](n2cc(-c3cccc(OCC4CCCCO4)c3)c3c(N)ncnc32)C1 (stereo partly drawn) [Example 100, (2R)-1-(((1R,3R)-3-(4-amino-5-(3-((tetrahydro-2H-pyran-2-yl)methoxy)phenyl)-7H-pyrrolo[2,3-d]pyrimidin-7-yl)cyclobutyl)methyl)-N-methylpyrrolidine-2-carboxamide] | 444 nM
CC1(C(N)=O)CCCN1CC1CC(n2cc(-c3cccc(OCC45CCC(CC4)O5)c3)c3c(N)ncnc32)C1 [Example 101, (S)-1-(((1S,3R)-3-(5-(3-(7-oxabicyclo[2.2.1]heptan-1-ylmethoxy)phenyl)-4-amino-7H-pyrrolo[2,3-d]pyrimidin-7-yl)cyclobutyl)methyl)-2-methylpyrrolidine-2-carboxamide] | 8 nM
NC(=O)[C@@H]1[C@@H]2C[C@@H]2CN1CC1CC(n2cc(-c3cccc(OCC4CCCCO4)c3)c3c(N)ncnc32)C1 (stereo partly drawn) [Example 102, (1R,2S,5S)-3-(((1S,3R)-3-(4-amino-5-(3-((tetrahydro-2H-pyran-2-yl)methoxy)phenyl)-7H-pyrrolo[2,3-d]pyrimidin-7-yl)cyclobutyl)methyl)-3-azabicyclo[3.1.0]hexane-2-carboxamide] | 43 nM
NC(=O)[C@@H]1[C@H]2CC[C@H](C2)N1CC1CC(n2cc(-c3cccc(OCC45CCC(CC4)O5)c3)c3c(N)ncnc32)C1 (stereo partly drawn) [Example 104, (1R,3S,4S)-2-(((1S,3R)-3-(5-(3-(7-oxabicyclo[2.2.1]heptan-1-ylmethoxy)phenyl)-4-amino-7H-pyrrolo[2,3-d]pyrimidin-7-yl)cyclobutyl)methyl)-2-azabicyclo[2.2.1]heptane-3-carboxamide] | 6 nM
CC1(C)CN(C[C@H]2C[C@@H](n3cc(-c4cccc(OCC5CCCCO5)c4)c4c(N)ncnc43)C2)CCS1(=O)=O (stereo partly drawn) [Example 105, 7-[cis-3-(2,2-Dimethyl-1,1-dioxo-1λ6-thiomorpholin-4-ylmethyl)-cyclobutyl]-5-[3-(tetrahydro-pyran-2-ylmethoxy)-phenyl]-7H-pyrrolo[2,3-d]pyrimidin-4-ylamine] | 409 nM
Nc1ncnc2c1c(-c1cccc(OCC34CCC(CC3)O4)c1)cn2[C@H]1C[C@@H](CN2CCSCC2=O)C1 [Example 106, 4-(((1S,3S)-3-(5-(3-(7-oxabicyclo[2.2.1]heptan-1-ylmethoxy)phenyl)-4-amino-7H-pyrrolo[2,3-d]pyrimidin-7-yl}-cyclobutyl)methyl)thiomorpholin-3-one] | 61 nM
CC1(OC(=O)NC[C@H]2C[C@@H](n3cc(-c4cccc(OCC56CCC(CC5)O6)c4)c4c(N)ncnc43)C2)CC1 [Example 107] | 21 nM
Nc1ncnc2c1c(-c1cccc(OCC34CCC(CC3)O4)c1)cn2[C@H]1C[C@@H](CN2C(=O)c3ccccc3C2=O)C1 [Example 108, 2-(((1S,3S)-3-(5-(3-(7-oxabicyclo[2.2.1]heptan-1-ylmethoxy)phenyl)-4-amino-7H-pyrrolo[2,3-d]pyrimidin-7-yl)cyclobutyl)methyl)isoindoline-1,3-dione] | 327 nM
CN1CCN([C@H]2CC[C@@H](n3cc(-c4cccc(OCC56CCC(CC5)O6)c4)c4c(N)ncnc43)CC2)CC1 [Example 109, 5-(3-(7-oxabicyclo[2.2.1]heptan-1-ylmethoxy)phenyl)-7-((1S,4S)-4-(4-methylpiperazin-1-yl)cyclohexyl)-7H-pyrrolo[2,3-d]pyrimidin-4-amine] | 101 nM
Nc1ncnc2c1c(-c1cccc(OCC34CCC(CC3)O4)c1)cn2[C@H]1CC[C@@H](CO)CC1 [Example 110, ((1S,4S)-4-(5-(3-(7-oxabicyclo[2.2.1]heptan-1-ylmethoxy)phenyl)-4-amino-7H-pyrrolo[2,3-d]pyrimidin-7-yl)-cyclohexyl)methanol] | 590 nM
Nc1ncnc2c1c(-c1cccc(OCC34CCC(CC3)O4)c1)cn2C1CCC(CN2CCS(=O)(=O)CC2)CC1 (stereo not shown) [Example 111, 7-[4-(1,1-Dioxo-thiomorpholin-4-ylmethyl)-cyclohexyl]-5-[3-(7-oxa-bicyclo[2.2.1]hept-1-ylmethoxy)-phenyl]-7H-pyrrolo[2,3-d]pyrimidin-4-ylamine] | 97 nM
Nc1ncnc2c1c(-c1cccc(OCC34CCC(CC3)O4)c1)cn2[C@H]1CC[C@@H](CN2CCSCC2)CC1 [Example 112, 5-(3-(7-oxabicyclo[2.2.1]heptan-1-ylmethoxy)phenyl)-7-((1S,4S)-4-(thiomorpholinomethyl)cyclohexyl)-7H-pyrrolo[2,3-d]pyrimidin-4-amine] | 36 nM
CN1CCN(C[C@H]2CC[C@@H](n3cc(-c4cccc(OCC56CCC(CC5)O6)c4)c4c(N)ncnc43)CC2)CC1 [Example 113, 5-(3-(7-oxabicyclo[2.2.1]heptan-1-ylmethoxy)phenyl)-7-((1S,4S)-4-((4-methylpiperazin-1-yl)methyl)cyclohexyl)-7H-pyrrolo[2,3-d]pyrimidin-4-amine] | 178 nM
CS(=O)(=O)CCN1CCC(n2cc(-c3cccc(OCC45CCC(CC4)O5)c3)c3c(N)ncnc32)CC1 [Example 114, 5-(3-(7-oxabicyclo[2.2.1]heptan-1-ylmethoxy)phenyl)-7-(1-(2-(methylsulfonyl)ethyl)piperidin-4-yl)-7H-pyrrolo[2,3-d]pyrimidin-4-amine] | 299 nM
Nc1ncnc2c1c(-c1cccc(OCC34CCC(CC3)O4)c1)cn2[C@H]1CC[C@@H](CN2CC[S+]([O-])CC2)CC1 [Example 115, 5-[3-(7-Oxa-bicyclo[2.2.1]hept-1-ylmethoxy)-phenyl]-7-cis-[4-(1-oxo-1λ4-thiomorpholin-4-ylmethyl)-cyclohexyl]-7H-pyrrolo[2,3-d]pyrimidin-4-ylamine] | 287 nM
Nc1ncnc2c1c(-c1cccc(OCC34CCC(CC3)O4)c1)cn2[C@H]1CC[C@@H](N2CCC(F)(F)CC2)CC1 [Example 116, 5-(3-(7-oxabicyclo[2.2.1]heptan-1-ylmethoxy)phenyl)-7-((1S,4S)-4-(4,4-difluoropiperidin-1-yl)cyclohexyl)-7H-pyrrolo[2,3-d]pyrimidin-4-amine] | 224 nM
Nc1ncnc2c1c(-c1cccc(OCC34CCC(CC3)O4)c1)cn2C1CCC(O)(CNC2CC2)CC1 [Example 117, (1R,4R)-4-(5-(3-(7-oxabicyclo[2.2.1]heptan-1-ylmethoxy)phenyl)-4-amino-7H-pyrrolo[2,3-d]pyrimidin-7-yl)-1-((cyclopropylamino)methyl)cyclohexanol] | 160 nM
Nc1ncnc2c1c(-c1cccc(OCC34CCC(CC3)O4)c1)cn2C1CCN(C2COC2)CC1 [Example 118, 5-(3-(7-oxabicyclo[2.2.1]heptan-1-ylmethoxy)phenyl)-7-(1-(oxetan-3-yl)piperidin-4-yl)-7H-pyrrolo[2,3-d]pyrimidin-4-amine] | 397 nM
CN1CCN([C@H]2CC[C@@H](n3cc(-c4cccc(OC[C@@H]5CCC(C)(C)O5)c4)c4c(N)ncnc43)CC2)CC1 [Example 119, 5-(3-(((S)-5,5-dimethyltetrahydrofuran-2-yl)methoxy)phenyl)-7-((1S,4S)-4-(4-methylpiperazin-1-yl)cyclohexyl)-7H-pyrrolo[2,3-d]pyrimidin-4-amine] | 36 nM
Nc1ncnc2c1c(-c1cccc(OCC3CCCCO3)c1)cn2C1CC(CN2CCCC2C(O)C(F)(F)F)C1 [Example 120, (1S)-1-((2S)-1-(((1S,3R)-3-(4-amino-5-(3-((tetrahydro-2H-pyran-2-yl)methoxy)phenyl)-7H-pyrrolo[2,3-d]pyrimidin-7-yl)cyclobutyl)methyl)pyrrolidin-2-yl)-2,2,2-trifluoroethanol] | 195 nM
CN1CCN([C@H]2CC[C@@H](n3cc(-c4cccc(OC[C@H]5CCC(C)(C)O5)c4)c4c(N)ncnc43)CC2)CC1 [Example 121, 5-(3-(((R)-5,5-dimethyltetrahydrofuran-2-yl)methoxy)phenyl)-7-((1S,4S)-4-(4-methylpiperazin-1-yl)cyclohexyl)-7H-pyrrolo[2,3-d]pyrimidin-4-amine] | 149 nM
C[C@]1(O)C[C@@H](c2nc(-c3cccc(OCC45CCC(CC4)O5)c3)c3c(N)nccn32)C1 [Example 122] | 485 nM
CN1CCN(C[C@]2(O)C[C@@H](n3cc(-c4cccc(OCC56CCC(CC5)O6)c4)c4c(N)ncnc43)C2)CC1 [Example 123, (Z)-3-{4-Amino-5-[3-(7-oxa-bicyclo[2.2.1]hept-1-ylmethoxy)-phenyl]-pyrrolo[2,3-d]pyrimidin-7-yl}-1-(4-methyl-piperazin-1-ylmethyl)-cyclobutanol] | 69 nM
Nc1ncnc2c1c(-c1cccc(OCC34CCC(CC3)O4)c1)cn2[C@H]1CC[C@@H](CN2CC[C@@H](O)C2)CC1 [Example 124] | 25 nM
Nc1ncnc2c1c(-c1cccc(OCC34CCC(CC3)O4)c1)cn2[C@H]1CC[C@H](N2CC[C@@H](F)C2)CC1 [Example 125, 5-(3-(7-oxabicyclo[2.2.1]heptan-1-ylmethoxy)phenyl)-7-((1R,4S)-4-((R)-3-fluoropyrrolidin-1-yl)cyclohexyl)-7H-pyrrolo[2,3-d]pyrimidin-4-amine] | 419 nM
